One experiment has as its target human RBP4 (Homo sapiens (Human), UniProt P02753). Put plainly: Binding assay by Retinol-RBP4-TTR ELISA. Particulars: for inhibition at 10 µM: at 10 μM compound, read-out: human RBP4 binding inhibitory activity(% at 10 μM); for IC50: retinol 50 nM, His-tagged human RBP4, biotinylated human TTR, read-out: human RBP4 binding inhibitory activity (IC50 nM). As to the method:
The action of the compound of the present invention to inhibit binding of RBP4 and retinol and TTR was evaluated using the Retinol-RBP4-TTR ELISA system shown below.
1F: Binding Assay by Retinol-RBP4-TTR ELISA
This ELISA system detects a complex of RBP4 and TTR based on a retinol-dependent binding of RBP4 to TTR.
His-tagged human RBP4 used was prepared in the above-mentioned 1C.
Biotinylate human TTR used was prepared in the above-mentioned 1E.
Streptavidin (20 μl) (10 μg/ml Streptavidin type II (Wako Pure Chemical Industries, Ltd.), 10 mM Tris-HCl (pH 7.5), 10 mM NaCl) was added to a 384 well black plate (Nunc MaxiSorp, Thermo Fisher Scientific Inc.), and the plate was subjected to centrifugation (1000 rpm, 1 min) and coated overnight at 4° C. The plate was washed twice with PBST (PBS, 0.05% Tween 20, 100 μl/well) and blocked with 25% Block Ace (Snow Brand Milk Products Co., Ltd., PBS, 100 μl/well). The plate was subjected to centrifugation (1000 rpm, 1 min) and incubated at room temperature for 4 hr or overnight at 4° C. The plate was washed twice with PBST (PBS, 0.05% Tween 20, 100 μl/well), and biotinylate human TTR (stock solution concentration 1.0 mg/ml) diluted 750-fold with PBST was added at 20 μl/well. The plate was subjected to centrifugation (1000 rpm, 1 min) and stood still at room temperature for 1.5 hr or overnight at 4° C. The plate was washed 3 times with PBST (100 μl/well), and His-tagged human RBP4 (stock solution concentration 0.96 mg/ml) diluted 4000-fold with a reaction buffer (50 mM Tris-HCl, 150 mM NaCl, 0.005% Tween 20, 1 mM DTT, 0.1% BSA) was added at 10 μl/well. The dilution series (8 doses from 10 mM, 200-fold concentration) of the compound was prepared with DMSO, and 1 μl of each was added to a reaction buffer (200 μl) containing retinol (50 nM) (Sigma-Aldrich Co.). A reaction buffer (200 μl) containing retinol and added with DMSO was used as a positive control, and reaction buffer (200 μl) free of retinol and added with DMSO was used as a negative control. Mixed solutions of retinol and the compound were added to the plate at 15 μl/well. The plate was stirred in a platemixer subjected to centrifugation (1000 rpm, 1 min) and reacted at room temperature for 2 hr. A 35% Block Ace solution diluted with the reaction buffer was added at 10 μl/well, centrifuged (1000 rpm, 1 min) and reacted at room temperature for 30 min. The plate was washed 3 times with PBST (100 μl/well) and SuperSignal ELISA Femto Maximum Sensitivity Substrate reagent (PIERCE, Thermo Fisher Scientific Inc.) was added at 30 μl/well, and the luminescence was measured by a platereader (Wallac).
The binding inhibitory activity of the compound was determined by 100×(positive control value-test compound value)/(positive control value-negative control value). The binding activity (IC50) was calculated from the binding inhibitory rate at each compound concentration using a graph drawing software, GraphPad Prism (GraphPad Software Inc.).

The target in a further experiment is RBP4 (Mus musculus (Mouse), UniProt Q00724). Put plainly: Single administration test in mice, plasma RBP4 by ELISA. It is filed as in vivo. Particulars: male C57BL/6J or ICR mice, 50 mg/kg oral single dose, mean±SD; for RBP4 (% of initial/Control) 0 hr: 0 hr (just before the administration); for RBP4 (% of initial/Control) 4 hr: 4 hr after administration; for RBP4 (% of initial/Control) 7 hr: 7 hr after administration; for RBP4 (% of initial/Control) 24 hr: 24 hr after administration. As to the method:
The action of the compounds of the present invention to reduce plasma RBP4 level was evaluated using the animal model shown below.
Male C57BL/6J and ICR mice were purchased from Charles River (Japan) and maintained on a normal diet (CE2, CLAE Japan, Inc.) and tap water. Animals were housed in a temperature-controlled room adjusted to a 12-hour light/12-hour dark cycle beginning at 7:00 and 19:00, respectively. All procedures were conducted according to the experimental animal care use committee of Takeda Pharmaceutical Company.
Male 6-12-week-old C57BL/6J or ICR mice were housed individually and fed CE2 for 4-6 days. After acclimatization, mice were divided into groups based on their body weight. Compounds were suspended in 0.5% (w/v) methylcellulose in water and given orally to mice at a dose of 50 mg/10 mL/kg of body weight (three to five mice per group). Blood samples were obtained from orbital vein with sodium heparin as an anticoagulant at time 0 hr (just before the administration), 4 hr, 7 hr, and 24 hr after the administration, followed by plasma separation by centrifugation. Plasma RBP4 levels were measured by enzyme-linked immunosorbent assay described in the following section.
Plasma samples were analyzed in duplicate for RBP4 by an enzyme-linked immunosorbent assay. Mouse recombinant RBP4 (Takeda Pharmaceutical Company) was used as standards, and the assay range was 0.313-20 ng/ml. Samples were diluted 10,000-fold with phosphate-buffered saline (PBS) (Sigma) containing 10% (w/v) BlockAce (Dainippon Sumitomo Pharma Co., Ltd). Rabbit anti-RBP4 polyclonal antibody (100 μL/well of 50 μg/mL, Hokudo Co, Ltd) was incubated in a 96-well plate (Nalge Nunc International K.K.) for overnight at 4° C. Subsequently, the plates were washed with PBS-T (Wako Pure Chemical Industries, Ltd.) and blocked with PBS containing 25% BlockAce for 1 hr at room temperature. After another washing with PBS-T, samples and standards were applied to the well, and the plates were incubated for 2 hr at room temperature. After a washing the wells, peroxidase-labeled (Dojindo Laboratories) anti-RBP4 (100 μL/well) was added to the wells, and then the plates were incubated for 1 hr at room temperature. After a final washing with PBS-T, substrate solution 3,3,5,5-tetramethylbenzidine (Sigma) was added to the wells, and the plates were placed in the dark for 5-20 min at room temperature. The reaction was stopped with 0.5 M sulphuric acid and the optical density was measured with a spectrophotometer at 450 nm. The changes in plasma RBP4 levels were expressed as % of initial/Control. All data are presented as mean±SD.
In general terms: An ELISA detects its analyte on a solid surface through an enzyme-linked reagent.

SMILES strings stand for the structures.

As usually defined, the IC50 is the point on the concentration scale where inhibition reaches its midpoint. As to `CC(C)(C)c1cc(Br)ccc1N1CCN(C(=O)CC(=O)O)CC1` [Example 69, 3-[4-(4-Bromo-2-tert-butylphenyl)piperazin-1-yl]-3-oxopropanoic acid], on human RBP4, the inhibition at 10 µM turned out to be 99% and the IC50 is 30 nM. Also, on RBP4, the “RBP4 (% of initial/Control) 0 hr” value is on record as 100.0 ± 13.8 % of initial/Control, the “RBP4 (% of initial/Control) 4 hr” value is given as 47.7 ± 2.7 % of initial/Control, the “RBP4 (% of initial/Control) 7 hr” value was 44.4 ± 0.7 % of initial/Control and the “RBP4 (% of initial/Control) 24 hr” value is listed as 50.0 ± 2.4 % of initial/Control.

For the molecule `CC(C)(C)c1ccccc1N1CCN(C(=O)CC2NC(=O)NC2=O)CC1` (centres unmarked) [Example 90, 5-{2-[4-(2-tert-Butylphenyl)piperazin-1-yl]-2-oxoethyl}imidazolidine-2,4-dione], the IC50 on human RBP4 is 34 nM.

Consider `CC(C)(C)c1ccccc1N1CCN(C(=O)C(=O)Nc2ccc(OCC(=O)O)cc2)CC1` [Example 201, [4-({[4-(2-tert-Butylphenyl)piperazin-1-yl](oxo)acetyl}amino)phenoxy]acetic acid], for which, at human RBP4, the inhibition at 10 µM amounted to 99%. Moreover, on RBP4, the “RBP4 (% of initial/Control) 0 hr” value is listed as 100.0 ± 9.8 % of initial/Control, the “RBP4 (% of initial/Control) 4 hr” value was 65.0 ± 0.7 % of initial/Control, the “RBP4 (% of initial/Control) 7 hr” value was 60.3 ± 1.0 % of initial/Control and the “RBP4 (% of initial/Control) 24 hr” value is 100.2 ± 13.6 % of initial/Control.

As to `CC(C)(C)c1ccccc1N1CCN(C(=O)C(=O)Nc2ccc(CCC(=O)O)cc2)CC1` [Example 197, 3-[4-({[4-(2-tert-Butylphenyl)piperazin-1-yl](oxo)acetyl}amino)phenyl]propanoic acid], the inhibition at 10 µM on human RBP4 was 100%. On RBP4, the “RBP4 (% of initial/Control) 0 hr” value is given as 100.0 ± 22.3 % of initial/Control, the “RBP4 (% of initial/Control) 4 hr” value was 72.2 ± 3.6 % of initial/Control, the “RBP4 (% of initial/Control) 7 hr” value is given as 67.0 ± 1.8 % of initial/Control and the “RBP4 (% of initial/Control) 24 hr” value is reported as 91.3 ± 15.9 % of initial/Control.

Take `CC(C)(C)c1ccccc1N1CCN(C(=O)Nc2ccccc2)CC1` [Example 56, 4-(2-tert-Butylphenyl)-N-phenylpiperazine-1-carboxamide]: on human RBP4, the IC50 is 58 nM.

As to `CC(C)(C)c1cc(Cl)ccc1N1CCN(C(=O)CC(=O)O)CC1` [Example 207, 3-[4-(2-tert-Butyl-4-chlorophenyl)piperazin-1-yl]-3-oxopropanoic acid], the inhibition at 10 µM on human RBP4 is 100%. In addition, at RBP4, the “RBP4 (% of initial/Control) 0 hr” value is 100.0 ± 27.4 % of initial/Control, the “RBP4 (% of initial/Control) 4 hr” value is 43.1 ± 1.7 % of initial/Control, the “RBP4 (% of initial/Control) 7 hr” value is reported as 37.6 ± 0.7 % of initial/Control and the “RBP4 (% of initial/Control) 24 hr” value is 52.0 ± 2.8 % of initial/Control.

For the molecule `CC(C)(C)c1ccccc1N1CCN(C(=O)C(=O)N2CCC(C(=O)O)C2)CC1` (centres unmarked) [Example 191, 1-{[4-(2-tert-Butylphenyl)piperazin-1-yl](oxo)acetyl}pyrrolidine-3-carboxylic acid], at human RBP4, the inhibition at 10 µM was 100%. At RBP4, the “RBP4 (% of initial/Control) 0 hr” value is given as 100.0 ± 8.0 % of initial/Control, the “RBP4 (% of initial/Control) 4 hr” value is 65.0 ± 2.2 % of initial/Control, the “RBP4 (% of initial/Control) 7 hr” value is 61.2 ± 2.3 % of initial/Control and the “RBP4 (% of initial/Control) 24 hr” value is reported as 127.6 ± 40.9 % of initial/Control.

As for `CC(C)(C)c1ccccc1N1CCN(C(=O)C(=O)NCCc2ccc(C(=O)O)cc2)CC1` [Example 203, 4-[2-({[4-(2-tert-Butylphenyl)piperazin-1-yl](oxo)acetyl}amino)ethyl]benzoic acid], the inhibition at 10 µM at human RBP4 was 100%. At RBP4, the RBP4 (% of initial/Control) 0 hr was 100 ± 2.82 % of initial/Control, the “RBP4 (% of initial/Control) 4 hr” value is recorded as 43.4 ± 1.8 % of initial/Control, the “RBP4 (% of initial/Control) 7 hr” value was 37.2 ± 1.0 % of initial/Control and the “RBP4 (% of initial/Control) 24 hr” value is given as 107.9 ± 15.6 % of initial/Control.

Regarding `CC(C)(C)c1ccccc1N1CCN(C(=O)C(O)CO)CC1` (centres unmarked) [Example 110, 3-[4-(2-tert-Butylphenyl)piperazin-1-yl]-3-oxopropane-1,2-diol], the 50% inhibitory concentration (IC50) on human RBP4 was determined as 330 nM.

Regarding `CC(C)(C)c1ccccc1N1CCN(C(=O)c2ccc(OCC3CCNCC3)cc2)CC1` [Example 41, 1-(2-tert-Butylphenyl)-4-{[4-(piperidin-4-ylmethoxy)phenyl]carbonyl}piperazine], at human RBP4, the IC50 amounted to 250 nM.

For the molecule `CC(C)(C)c1cc(Cl)ccc1N1CCN(C(=O)c2ccc(OCC(=O)O)cn2)CC1` [Example 210, [(6-{[4-(2-tert-Butyl-4-chlorophenyl)piperazin-1-yl]carbonyl}pyridin-3-yl)oxy]acetic acid], the inhibition at 10 µM on human RBP4 came to 99%. At RBP4, the “RBP4 (% of initial/Control) 0 hr” value was 100.0 ± 10.5 % of initial/Control, the “RBP4 (% of initial/Control) 4 hr” value is 55.3 ± 4.0 % of initial/Control, the “RBP4 (% of initial/Control) 7 hr” value was 54.9 ± 8.8 % of initial/Control and the “RBP4 (% of initial/Control) 24 hr” value is given as 97.6 ± 24.5 % of initial/Control.

`CC(C)(C)c1ccccc1N1CCN(C(=O)c2c[nH]cn2)CC1` [Example 3, 1-(2-tert-Butylphenyl)-4-(1H-imidazol-4-ylcarbonyl)piperazine]: the IC50 on human RBP4 is 3.8 nM.

On to `CC(C)(C)c1ccccc1N1CCN(C(=O)c2ccc(-c3noc(=O)[nH]3)cc2)CC1` [Example 19, 3-(4-{[4-(2-tert-Butylphenyl)piperazin-1-yl]carbonyl}phenyl)-1,2,4-oxadiazol-5(4H)-one], for which the IC50 on human RBP4 is 49 nM.

Take `CC(C)(C)c1ccccc1N1CCN(C(=O)c2ccc(C(=O)O)cc2)CC1` [Example 34, 4-{[4-(2-tert-Butylphenyl)piperazin-1-yl]carbonyl}benzoic acid]: the IC50 on human RBP4 was found to be 480 nM.

Turning to `CC(C)(C)c1ccccc1N1CCN(C(=O)C23CC4CC(CC(C(=O)O)(C4)C2)C3)CC1` [Example 1, 3-{[4-(2-tert-Butylphenyl)piperazin-1-yl]carbonyl}adamantane-1-carboxylic acid], on human RBP4, the half-inhibitory concentration (IC50) turned out to be 95 nM.

Source of the values: patent US8853215B2, “Derivatives of N-acyl-N′-phenylpiperazine useful (inter alia) for the prophylaxis or treatment of diabetes” (Takeda Pharmaceutical Company Limited, priority 2009, dated 2014).
